This is an account of results in ChEMBL document CHEMBL1914458 (Eur J Med Chem, 2011).

A short description of experiment [1]: Inhibition of self-mediated amyloid beta (1 to 42) aggregation at 10 uM after 48 hrs by thioflavin T fluorescence assay.
A short description of experiment [2]: Inhibition of self-mediated amyloid beta (1 to 42) aggregation at 20 uM after 48 hrs by thioflavin T fluorescence assay.
Experiment [3] is described as follows: Antioxidant activity assessed as trolox equivalent of AAPH-induced peroxyl radical scavenging activity at 0.5 to 10 uM after 10 mins by oxygen radical absorbance capacity-fluorescein assay. Type of experiment: functional.
The target in experiment [4] is Cholinesterase (Equus caballus, UniProt P81908).
Description: Inhibition of equine serum BuChE using butyrylthiocholine chloride as substrate preincubated for 15 mins by Ellman's method
Experiment [5] deals with Acetylcholinesterase (Electrophorus electricus, UniProt O42275).
Description: Inhibition of electric eel AChE using acetylthiocholine chloride substrate as substrate preincubated for 15 mins by Ellman's method

SMILES strings stand for the structures.

Sequence of Cholinesterase (P81908 whole entry): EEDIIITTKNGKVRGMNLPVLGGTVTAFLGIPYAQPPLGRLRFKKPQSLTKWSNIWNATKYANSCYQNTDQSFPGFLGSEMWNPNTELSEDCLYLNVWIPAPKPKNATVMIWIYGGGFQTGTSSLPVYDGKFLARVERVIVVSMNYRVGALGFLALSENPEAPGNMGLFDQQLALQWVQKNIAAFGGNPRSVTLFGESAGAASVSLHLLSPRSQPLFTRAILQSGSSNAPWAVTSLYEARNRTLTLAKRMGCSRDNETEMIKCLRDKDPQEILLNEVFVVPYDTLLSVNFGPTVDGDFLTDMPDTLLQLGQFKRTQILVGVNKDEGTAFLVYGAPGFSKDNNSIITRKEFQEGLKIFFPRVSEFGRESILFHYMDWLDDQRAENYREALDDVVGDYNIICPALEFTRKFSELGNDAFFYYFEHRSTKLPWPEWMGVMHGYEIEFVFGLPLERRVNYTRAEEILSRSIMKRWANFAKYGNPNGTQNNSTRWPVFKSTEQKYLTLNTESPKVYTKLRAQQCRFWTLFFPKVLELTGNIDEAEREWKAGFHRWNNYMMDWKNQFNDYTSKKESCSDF
Sequence of Acetylcholinesterase (O42275 whole entry): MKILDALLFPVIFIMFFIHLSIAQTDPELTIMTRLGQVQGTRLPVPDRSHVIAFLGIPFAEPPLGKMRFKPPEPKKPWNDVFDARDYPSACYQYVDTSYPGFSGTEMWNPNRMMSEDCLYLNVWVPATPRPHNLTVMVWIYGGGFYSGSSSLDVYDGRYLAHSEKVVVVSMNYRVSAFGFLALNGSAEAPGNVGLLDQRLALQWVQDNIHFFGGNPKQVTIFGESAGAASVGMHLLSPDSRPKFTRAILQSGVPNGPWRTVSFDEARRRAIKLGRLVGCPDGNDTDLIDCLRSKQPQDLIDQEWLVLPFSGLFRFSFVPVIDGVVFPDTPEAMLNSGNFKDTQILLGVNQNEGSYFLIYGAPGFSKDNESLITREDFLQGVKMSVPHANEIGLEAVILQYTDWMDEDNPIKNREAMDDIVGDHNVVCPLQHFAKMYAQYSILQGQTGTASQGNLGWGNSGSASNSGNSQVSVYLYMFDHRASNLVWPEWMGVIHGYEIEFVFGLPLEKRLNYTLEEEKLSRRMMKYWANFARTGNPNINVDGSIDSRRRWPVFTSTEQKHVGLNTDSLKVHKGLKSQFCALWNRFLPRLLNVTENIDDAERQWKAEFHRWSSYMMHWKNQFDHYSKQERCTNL

Usually inhibition stands for the share of the control response that was lost under treatment. A high value points to a strong effect. As usually defined, the IC50 is the concentration that gives 50% inhibition. Read a low IC50 as greater potency in that assay. `COc1ccc2cc3[n+](cc2c1NCCc1ccccc1C)CCc1cc2c(cc1-3)OCO2`: the figures for the inhibition in experiment [1] and in experiment [2] were 80% and 95%, respectively. Besides, in experiment [3], the Ratio turned out to be 4.05. In addition, the IC50 stood at 713 nM in experiment [4] and 27 nM in experiment [5].

As for `COc1ccc2cc3[n+](cc2c1NCCc1ccc(C)cc1)CCc1cc2c(cc1-3)OCO2`, the inhibition in experiment [1] was 80%; in experiment [2] it was 94%. The Ratio in experiment [3] worked out at 4.56. The 50% inhibitory concentration (IC50) in experiment [4] is 821 nM; in experiment [5] it was 449 nM.

As to `COc1ccc2[nH]cc(CCNc3c(OC)ccc4cc5[n+](cc34)CCc3cc4c(cc3-5)OCO4)c2c1`, the Ratio in experiment [3] came to 6.06. For the same compound, the figures for the half-maximal inhibitory concentration (IC50) in experiment [4] and in experiment [5] were 1390 nM and 1260 nM, respectively.

`COc1ccc2cc3[n+](cc2c1NCCc1cccc(C)c1)CCc1cc2c(cc1-3)OCO2`: the inhibition in experiment [1] is 79%; in experiment [2], 93.6%. Further, in experiment [3], the Ratio was 4.73. Also, the IC50 in experiment [4] stood at 674 nM; in experiment [5], 91 nM.

Consider `COc1ccc(CCNc2c(OC)ccc3cc4[n+](cc23)CCc2cc3c(cc2-4)OCO3)cc1`, for which the figures for the inhibition in experiment [1] and in experiment [2] were 79% and 91.1%, respectively. Moreover, the Ratio in experiment [3] stood at 4.68. Moreover, the values for the IC50 in experiment [4] and in experiment [5] were 2880 nM and 990 nM, respectively.

With `COc1ccc2cc3[n+](cc2c1NCC(C)C)CCc1cc2c(cc1-3)OCO2`, the Ratio in experiment [3] stood at 5.12. Also, the IC50 in experiment [4] amounted to 2020 nM; in experiment [5] it was 1140 nM.

For `COc1ccc2cc3[n+](cc2c1NCCc1ccc([N+](=O)[O-])cc1)CCc1cc2c(cc1-3)OCO2`, the inhibition in experiment [1] is 73.7%; in experiment [2] it was 82.6%. In addition, the Ratio in experiment [3] came to 2.83. For the same compound, the IC50 in experiment [4] was 841 nM; in experiment [5], 693 nM.

Turning to `COc1ccc2cc3[n+](cc2c1NCCc1ccccn1)CCc1cc2c(cc1-3)OCO2`, in experiment [3], the Ratio came to 6.4. Further, the IC50 amounted to 2500 nM in experiment [4] and 1160 nM in experiment [5].

Turning to `COc1ccc2cc3[n+](cc2c1NCCCCOc1ccccc1)CCc1cc2c(cc1-3)OCO2`, the Ratio in experiment [3] came out at 3.68. Also, the IC50 came to 1200 nM in experiment [4] and 349 nM in experiment [5].

In the case of `COc1ccc2cc3[n+](cc2c1NCCc1ccc(F)cc1)CCc1cc2c(cc1-3)OCO2`, the inhibition in experiment [1] amounted to 76.3%; in experiment [2], 90.4%. Moreover, the Ratio in experiment [3] is 4.48. In addition, the concentration for half-maximal inhibition (IC50) turned out to be 445 nM in experiment [4] and 238 nM in experiment [5].

As for `COc1ccc2cc3[n+](cc2c1NCCCCCOc1ccccc1)CCc1cc2c(cc1-3)OCO2`, in experiment [3], the Ratio amounted to 3.64. For the same compound, the IC50 in experiment [4] came out at 1560 nM; in experiment [5], 1090 nM.

For `COc1ccc2cc3[n+](cc2c1NCCCN(C)C)CCc1cc2c(cc1-3)OCO2`, the Ratio in experiment [3] worked out at 5.7. Further, the IC50 in experiment [4] was 6320 nM; in experiment [5], 576 nM.

On to `COc1ccc2cc3[n+](cc2c1NCCCCOc1cccnc1)CCc1cc2c(cc1-3)OCO2`, for which the Ratio in experiment [3] is 4.63. The figures for the IC50 in experiment [4] and in experiment [5] were 2940 nM and 1170 nM, respectively.

In the case of `COc1ccc2cc3[n+](cc2c1NCCCCCCOc1ccccc1)CCc1cc2c(cc1-3)OCO2`, the Ratio in experiment [3] came out at 2.8. The IC50 in experiment [4] amounted to 1300 nM; in experiment [5], 1420 nM.

With `COc1ccc2cc3[n+](cc2c1NCCOc1ccccc1)CCc1cc2c(cc1-3)OCO2`, the Ratio in experiment [3] stood at 5.15. Besides, the IC50 was 727 nM in experiment [4] and 688 nM in experiment [5].

As for `COc1ccc2cc3[n+](cc2c1NCCCCOc1cccc2ccccc12)CCc1cc2c(cc1-3)OCO2`, the Ratio in experiment [3] was 2.49. Moreover, the figures for the IC50 in experiment [4] and in experiment [5] were 511 nM and 400 nM, respectively.

For the compound `COc1ccc2cc3[n+](cc2c1NCCCOc1ccccc1)CCc1cc2c(cc1-3)OCO2`, the Ratio in experiment [3] came out at 5.4. Moreover, the figures for the half-maximal inhibitory concentration (IC50) in experiment [4] and in experiment [5] were 216 nM and 588 nM, respectively.

For the compound `COc1ccc2cc3[n+](cc2c1NCCc1ccccc1)CCc1cc2c(cc1-3)OCO2`, the values for the inhibition in experiment [1] and in experiment [2] were 79.2% and 92.2%, respectively. The Ratio in experiment [3] stood at 4.8. For the same compound, the values for the IC50 in experiment [4] and in experiment [5] were 406 nM and 209 nM, respectively.

Take `COc1ccc2cc3[n+](cc2c1NCCc1ccc(Cl)cc1Cl)CCc1cc2c(cc1-3)OCO2`: the inhibition in experiment [1] turned out to be 81.3%; in experiment [2], 93.6%. For the same compound, in experiment [3], the Ratio was determined as 3.36. Besides, the IC50 in experiment [4] is 424 nM; in experiment [5], 130 nM.

As for `COc1ccc2cc3[n+](cc2c1NCCCc1ccccc1)CCc1cc2c(cc1-3)OCO2`, in experiment [3], the Ratio stood at 3.51. The IC50 turned out to be 785 nM in experiment [4] and 680 nM in experiment [5].

As for `COc1ccc2cc3[n+](cc2c1OC)CCc1cc2c(cc1-3)OCO2`, the inhibition in experiment [1] was determined as 8.9%; in experiment [2], 36.3%.

Consider `COc1cc(/C=C/C(=O)CC(=O)/C=C/c2ccc(O)c(OC)c2)ccc1O`, for which the inhibition in experiment [1] is 30.7%.

In the case of `COc1ccc2cc3[n+](cc2c1NCc1ccccc1)CCc1cc2c(cc1-3)OCO2`, the Ratio in experiment [3] worked out at 4.32. In addition, the half-inhibitory concentration (IC50) in experiment [4] is 2280 nM; in experiment [5], 936 nM.

Turning to `COc1ccc2cc3[n+](cc2c1OCCCCOc1ccccc1)CCc1cc2c(cc1-3)OCO2`, the Ratio in experiment [3] was determined as 1.

Take `COc1ccc2cc3[n+](cc2c1NC(C)c1ccccc1)CCc1cc2c(cc1-3)OCO2` (stereo unspecified): the Ratio in experiment [3] amounted to 2.17. In addition, the IC50 in experiment [4] amounted to 3280 nM; in experiment [5], 1910 nM.

Regarding `COc1ccc2cc3[n+](cc2c1NCCc1cccs1)CCc1cc2c(cc1-3)OCO2`, the inhibition in experiment [1] was 72.8%; in experiment [2] it was 87.8%. Moreover, the Ratio in experiment [3] is 4.18. Besides, the values for the IC50 in experiment [4] and in experiment [5] were 555 nM and 608 nM, respectively.

With `COc1ccc(CCNc2c(OC)ccc3cc4[n+](cc23)CCc2cc3c(cc2-4)OCO3)cc1OC`, the inhibition in experiment [1] was found to be 54.1%; in experiment [2] it was 70.1%. The Ratio in experiment [3] came to 5.3. The half-maximal inhibitory concentration (IC50) turned out to be 5820 nM in experiment [4] and 160 nM in experiment [5].
